Source: the NIST ThermoML archive (doi:10.1016/j.tca.2010.08.021)
Numbers after ± are expanded uncertainties.

What was measured:
[1] = Crystal; visual observation
[2] = Molar enthalpy of transition or fusion; details: Crystal; DSC

Row | SMILES | Normal melting temperature [1] | Molar enthalpy of transition or fusion [2]
1 | O=[N+]([O-])c1c(Cl)c(Cl)c(Cl)c(Cl)c1Cl [pentachloronitrobenzene] | 145.00 ± 1 °C | 4.59 ± 0.143 kcal/mol
2 | N#CCCC#N [butanedinitrile] | 57.00 ± 1 °C | 0.884 ± 0.0478 kcal/mol
